IC50, Ki and Activity data for seven molecules are collected here from ChEMBL document CHEMBL3414526, “Selective, nontoxic CB(2) cannabinoid o-quinone with in vivo activity against triple-negative breast cancer” (J Med Chem, 2015).

The subject of data set [1] is MDA-MB-231. Briefly: Antiproliferative activity against human MDA-MB-231 cells after 48 hrs by MTT assay. In kind it is functional, cell-based. The settings on record: MDA-MB-231, 48 h.
Data set [2] concerns the target Cannabinoid receptor 2 (Homo sapiens, UniProt P34972). Briefly: Displacement of [3H]CP55940 from human CB2 receptor transfected in HEK293 cells after 90 mins by liquid scintillation spectrophotometry. In kind it is cell-based.
The target in data set [3] is Cannabinoid receptor 1 (Homo sapiens, UniProt P21554). Put plainly: Displacement of [3H]CP55940 from human CB1 receptor transfected in HEK293 cells after 90 mins by liquid scintillation spectrophotometry. In kind it is cell-based.
Sequence of Cannabinoid receptor 1 (P21554 whole entry): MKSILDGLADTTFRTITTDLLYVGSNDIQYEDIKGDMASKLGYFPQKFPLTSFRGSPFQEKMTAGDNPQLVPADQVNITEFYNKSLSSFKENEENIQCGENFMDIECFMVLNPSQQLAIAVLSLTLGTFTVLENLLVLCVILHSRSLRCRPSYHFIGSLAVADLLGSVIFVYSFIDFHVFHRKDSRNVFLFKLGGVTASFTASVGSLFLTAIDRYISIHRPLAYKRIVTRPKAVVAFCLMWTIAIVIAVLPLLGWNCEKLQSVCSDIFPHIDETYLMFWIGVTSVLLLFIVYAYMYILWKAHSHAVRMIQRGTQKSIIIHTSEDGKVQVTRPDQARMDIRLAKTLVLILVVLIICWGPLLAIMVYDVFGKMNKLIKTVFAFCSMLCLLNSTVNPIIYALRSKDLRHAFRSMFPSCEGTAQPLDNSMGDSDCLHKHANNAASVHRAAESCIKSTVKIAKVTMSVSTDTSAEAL
The subject of data set [4] is MDA-MB-231. Briefly: Antiproliferative activity against human MDA-MB-231 cells after 72 hrs by MTT assay. In kind it is functional, cell-based. The following applies: MDA-MB-231, 72 h.
The subject of data set [5] is HMEC. Briefly: Antiproliferative activity against HMEC at 2 to 30 uM after 48 hrs by MTT assay. In kind it is cell-based. The settings on record: human.
In data set [6] the test system is MDA-MB-231. Put plainly: Induction of apoptosis in human MDA-MB-231 cells assessed as increase in active caspase-3 level at IC50 after 48 hrs by Western blotting analysis. In kind it is functional, cell-based.
The test system of data set [7] is MDA-MB-231. Put plainly: Antiproliferative activity against human MDA-MB-231 cells at IC50 after 48 hrs by MTT assay in presence of SR141716. In kind it is functional, cell-based.
The subject of data set [8] is Mus musculus. Put plainly: Toxicity in nude mouse xenografted with human MDA-MB-231 cells assessed as toxicity in heart at 2 mg/kg, ip administered 3 times a week for 4 weeks. Further details: dose 2 mg/kg, route intraperitoneal. The following applies: in vivo, 672 h. In kind it is organism-based.
Data set [9] concerns MDA-MB-231. Put plainly: Antitumor activity against human MDA-MB-231 cells xenografted in nude mouse assessed as reduction in tumor volume at 2 mg/kg, ip administered 3 times a week for 4 weeks relative to control. In kind it is functional, organism-based. More on the design: dose 2 mg/kg.
Data set [10] deals with MDA-MB-231. Briefly: Antiproliferative activity against human MDA-MB-231 cells at IC50 after 48 hrs by MTT assay in presence of CDI16020046. In kind it is functional, cell-based.
Data set [11] has as its system MDA-MB-231. Put plainly: Antitumor activity against human MDA-MB-231 cells xenografted in nude mouse assessed as reduction in tumor weight at 2 mg/kg, ip administered 3 times a week for 4 weeks relative to control. In kind it is functional, organism-based. Further details: dose 2 mg/kg.
Data set [12] in a line: Antiproliferative activity against human SUM159 cells after 48 hrs by MTT assay. In kind it is functional, cell-based. The following applies: SUM-159-PT.
For data set [13], the system named is Mus musculus. Briefly: Toxicity in nude mouse xenografted with human MDA-MB-231 cells assessed as toxicity in spleen at 2 mg/kg, ip administered 3 times a week for 4 weeks. The settings on record: in vivo, 672 h. Further details: dose 2 mg/kg, route intraperitoneal. In kind it is organism-based.
Data set [14] can be described thus: Antiproliferative activity against human SUM149 cells after 48 hrs by MTT assay. The following applies: SUM149PT. In kind it is functional, cell-based.
The test system of data set [15] is Mus musculus. Put plainly: Toxicity in nude mouse xenografted with human MDA-MB-231 cells assessed as toxicity in liver at 2 mg/kg, ip administered 3 times a week for 4 weeks. In kind it is organism-based. More on the design: dose 2 mg/kg, route intraperitoneal. The settings on record: in vivo, 672 h.
Data set [16] concerns MDA-MB-231. Put plainly: Antiproliferative activity against human MDA-MB-231 cells at IC50 after 48 hrs by MTT assay in presence of SR144528. In kind it is functional, cell-based.
Data set [17] deals with MDA-MB-231. Put plainly: Antiproliferative activity against human MDA-MB-231 cells at IC50 after 48 hrs by MTT assay in presence of alpha-tocopherol. In kind it is functional, cell-based.
Data set [18] concerns MDA-MB-231. Briefly: Antitumor activity against human MDA-MB-231 cells xenografted in nude mouse assessed as reduction in tumor growth at 2 mg/kg, ip administered 3 times a week for 4 weeks relative to control. Further details: dose 2 mg/kg. In kind it is functional, organism-based.
Data set [19] has as its system MDA-MB-468. Put plainly: Antiproliferative activity against human MDA-MB-468 cells after 48 hrs by MTT assay. In kind it is functional, cell-based. The settings on record: MDA-MB-468, 48 h.
The subject of data set [20] is Mus musculus. Briefly: Toxicity in nude mouse xenografted with human MDA-MB-231 cells assessed as toxicity in lungs at 2 mg/kg, ip administered 3 times a week for 4 weeks. In kind it is organism-based. Further details: dose 2 mg/kg, route intraperitoneal. The settings on record: in vivo, 672 h.

Calls of active or inactive are those of the source. No cut-off for these calls is given here.

Sequence of Cannabinoid receptor 2 (P34972 whole entry): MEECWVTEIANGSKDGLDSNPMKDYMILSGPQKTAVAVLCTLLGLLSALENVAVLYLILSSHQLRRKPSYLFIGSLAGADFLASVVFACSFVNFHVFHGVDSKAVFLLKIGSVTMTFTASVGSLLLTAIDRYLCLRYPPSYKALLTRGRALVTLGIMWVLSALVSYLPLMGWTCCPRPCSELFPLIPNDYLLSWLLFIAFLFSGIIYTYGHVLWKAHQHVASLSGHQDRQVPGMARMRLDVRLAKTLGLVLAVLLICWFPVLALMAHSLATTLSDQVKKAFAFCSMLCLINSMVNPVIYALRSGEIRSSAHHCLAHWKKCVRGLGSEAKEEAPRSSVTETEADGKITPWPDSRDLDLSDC

Molecule `CCCCCCC(C)(C)C1=CC(=O)C2=C(OC(C)(C)c3cn(CC)nc32)C1=O` yielded an IC50 in data set [1] of 2.5 µM.

With `CCCCCCC(C)(C)C1=CC2=C(C(=O)C1=O)c1[nH]ncc1C(C)(C)O2`, the results for the Ki in data set [2] and in data set [3] were 0.398 µM and over 40 µM, respectively. The same molecule came in with an IC50 in [1] of 8.5 µM.

Turning to `CCCCCc1cc(O)c2c(c1)OC(C)(C)[C@@H]1CCC(C)=C[C@@H]21` [DRONABINOL], in [4], the IC50 worked out at 5 µM.

`CCCCCCC(C)(C)C1=CC(=O)C2=C(OC(C)(C)c3cn(C)nc32)C1=O` showed an IC50 in data set [1] of 5.8 µM.

Take `CCCCCCC(C)(C)C1=CC2=C(C(=O)C1=O)c1c(cnn1CC)C(C)(C)O2`: the Activity entry in [5], in data set [8], in data set [13], in data set [15] and in data set [20] was “Non-toxic” each time. The result in data set [6], in data set [7], in data set [9], in [10], in [11] and in data set [18] was Active. The figures for the Ki in data set [2] and in data set [3] were 0.529 µM and over 40 µM, respectively. Also, the IC50 in data set [1] was 2.8 µM; in data set [12], 4.1 µM; in [14], 4.6 µM; in data set [19], 17.3 µM. The result in [16] and in data set [17] was inactive.

`CCCCCCC(C)(C)C1=CC(=O)C2=C(OC(C)(C)c3c[nH]nc32)C1=O` had an IC50 in [1] of 8.2 µM.

For the molecule `CCCCCCC(C)(C)C1=CC2=C(C(=O)C1=O)c1nn(C)cc1C(C)(C)O2`, the results for the Ki in data set [2] and in data set [3] were 0.597 µM and over 40 µM, respectively. In data set [1], this molecule yielded an IC50 of 5 µM.
